Assay results as given in patent publication US8039512B2, “Biologically active oils” (priority 2003, dated 2011).

Legend:
[1] = tested on: Secreted PGE2 from 3T3 cells; assay: In-vitro prostaglandin PGE2 (COX pathways) EIA assay; type: cell-based, mouse; details: 50 µM
Protocol: This assay was performed using Cayman chemicals Prostaglandin E2 EIA Kit-Monoclonal, according to kit protocol. Each sample was assayed at three dilutions in duplicate. […] In particular the two samples produced dose dependent inhibition of secreted PGE2 from the mouse fibroblast cell line equivalent to or better than aspirin under the test conditions.

[2] = tested on: 5-lipoxygenase pathway of human neutrophils (PMN); assay: Lipoxygenase pathways (leukotrienes and HETE) HPLC assay in isolated PMN; type: cell-based; details: for 5-HETE synthesis / Isomer 1 (all trans isomer of LTB4) synthesis / Isomer 2 (all trans isomer of LTB4) synthesis / LTB4 synthesis: human PMN, arachidonic acid + A23187
Excerpt: The HPLC assay readily quantifies 5-HETE, 12-HETE, LTB4, and the two all trans-isomers of LTB-4, and thus gives quantitative data on the relative activities of the enzymes in the 5-lipoxygenase of neutrophils, as well as data on the 12-lipoxygenase pathway of platelets. Thus it is an ideal system to test potential inhibitors of these pathways.
The effects of inhibitory compounds may be tested on isolated human PMN and platelets, in which the pathways are activated by treating the PMN or platelets with arachidonic acid and the calcium ionophore A23187. The addition of arachidonic acid eliminates the PLA-2 step, and provides high levels of substrate for the pathway. Furthermore, such activation is known to maximally drive the pathway to produce the greatest synthesis of all the metabolites, and thus is also the least sensitive to inhibition.
All samples were dissolved in ethanol to give stock solutions of 10 mg/mL. Two further dilutions of each stock solution were made in ethanol at 5 and 1 mg/mL, making 10 test samples in all. […]
1. Up to 100 mL of blood was taken from a normal volunteer and anticoagulated with EDTA. Two mL of 4.5% EDTA in water was mixed with each 10 mL of blood.
2. A further 2 mL of 6.0% Dextran T500 was added to each of the 12 mL mixtures in 1, and placed in a water bath at 37° C., to sediment the red blood cells.
3. Following sedimentation in 2, the supernatant was carefully laid over 5 mL of Percoll, density 1.070. This was then spun at 500 g for 35 mins.
4. All the cells (PMN and remaining RBC) below the Percoll interface were removed with a plastic pipette and diluted at least 3-fold with Ca^2+/Mg^2+-free Dulbecco's phosphate buffer, and centrifuged at 600 g for 10 mins.
5. Following 4, the supernatant was carefully aspirated, and the pellet gently mixed with 1 mL of Ca^2+/Mg^2+-free Dulbecco's phosphate buffer by aspiration/deaspiration into a 1 ml plastic disposable pipette. A further 40 mL of Ca^2+/Mg^2+-free Dulbecco's phosphate buffer was then added and mixed by inversion. The cell suspension was then centrifuged at 600 g for 10 mins. 6. Following centrifugation, the supernatant was removed and the PMN pellet lysed with 10 mL of a 0.2% cold sodium chloride solution for 20 secs, followed by the addition of 10 mL of a 1.6% cold sodium chloride solution, and centrifuged at 600 g for 10 mins. 7. Following 6, the PMN pellet was vigorously mixed with 1 mL of Hank's buffer by rapid aspiration/deaspiration into a 1 mL plastic disposable pipette, and then finally suspended in Hank's buffer at 2.4×10^6 PMN/ml (as measured using a Coulter counter), in preparation for the leukotriene assay. Activation of Leukotriene Pathway 1. 1 mL of PMN suspension (2.4×10^6 PMN/ml) was transferred to a 13 mL glass tube (chromic acid washed) and placed in a water bath at 37° C. for 5 min prewarming. 2. Following prewarming, at time zero, 10 μL of each test compound in methanol (or equivalent volumes of methanol as control) was added to quadruplicate tubes over a 20 sec period. 3. At 5 min, 5 µL of 2 mM arachidonic acid (10 μM final) was added (4 tubes/20 secs). 4. At 10 min, 5 µL of 1 mM calcium ionophore (A23187) (5 μM final) was added (4 tubes/20 secs). 5. At 15 min the reaction was terminated by the addition of 100 μL 100 mM citric acid. This lowers the pH of the aqueous phase to less than 3, which is necessary for the extraction of the leukotrienes into the organic phase. 6. The pH of several samples was checked to ensure pH<3.0. (This is important). 7. 40 ng Prostaglandin B2 and 166 ng 15-HETE were added to each tube as the internal standard for LTB4 and 5-HETE respectively, and samples were mixed. 8. For Standard Curves LTB4 [1 ng/μl] (for a standard curve in the range 0-50 ng) and 5-HETE [5 ng/μL] (standard curve range 0-250 ng) were added to tubes containing 1 mL PMN, 100 μL of 100 mM citric acid and 40 ng PGB2 and 166 ng 15-HETE. 9. All tubes were vortexed. 10. […]

With CC(=O)Oc1ccccc1C(=O)O [Aspirin] the “% Control (secreted PGE2)” value ([1]; A23187) was 72.6 % Control and the “% Control (secreted PGE2)” value ([1]; A23187, listed as aspirin) was “around 72.6 % Control”.

With CCC(C)CCCCCCCCCCC(=O)O (centres unmarked) [Sample 12-MTA, 12-methyl tetradecanoic acid] the 5-HETE synthesis ([2]; 2 μg/mL) was 55 ± 9 percentage of the methanol control, the “Isomer 1 (all trans isomer of LTB4) synthesis” value ([2]; 2 μg/mL) was 73 ± 13 percentage of the methanol control and the “Isomer 2 (all trans isomer of LTB4) synthesis” value ([2]; 2 μg/mL) was 60 ± 17 percentage of the methanol control. For the same molecule, the LTB4 synthesis ([2]; 2 μg/mL) was 84 ± 5 percentage of the methanol control, the 5-HETE synthesis ([2]; 5 μg/mL) was 65 ± 3 percentage of the methanol control and the “Isomer 1 (all trans isomer of LTB4) synthesis” value ([2]; 5 μg/mL) was 101 ± 12 percentage of the methanol control. For the same molecule, the “Isomer 2 (all trans isomer of LTB4) synthesis” value ([2]; 5 μg/mL) was 97 ± 9 percentage of the methanol control, the LTB4 synthesis ([2]; 5 μg/mL) was 101 ± 12 percentage of the methanol control and the 5-HETE synthesis ([2]; 10 μg/mL) was 46 ± 11 percentage of the methanol control. The “Isomer 1 (all trans isomer of LTB4) synthesis” value ([2]; 10 μg/mL) was 59 ± 14 percentage of the methanol control, the “Isomer 2 (all trans isomer of LTB4) synthesis” value ([2]; 10 μg/mL) was 68 ± 14 percentage of the methanol control and the LTB4 synthesis ([2]; 10 μg/mL) was 70 ± 17 percentage of the methanol control. The 5-HETE synthesis ([2]; 20 μg/mL) was 2 ± 4 percentage of the methanol control, the “Isomer 1 (all trans isomer of LTB4) synthesis” value ([2]; 20 μg/mL) was 0 percentage of the methanol control and the “Isomer 2 (all trans isomer of LTB4) synthesis” value ([2]; 20 μg/mL) was 0 percentage of the methanol control. The LTB4 synthesis ([2]; 20 μg/mL) was 0 percentage of the methanol control, the 5-HETE synthesis ([2]; 50 μg/mL) was 0 percentage of the methanol control and the “Isomer 1 (all trans isomer of LTB4) synthesis” value ([2]; 50 μg/mL) was 0 percentage of the methanol control. For the same molecule, the “Isomer 2 (all trans isomer of LTB4) synthesis” value ([2]; 50 μg/mL) was 0 percentage of the methanol control, the LTB4 synthesis ([2]; 50 μg/mL) was 0 percentage of the methanol control and the “Inhibition of the 5-LOX pathway” value ([2]; as low as 20 μg/mL) was 100%.
